# Data taken from PubChem BioAssay (NCI).
#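 Results reflect a 48-hour exposure of cells in 96-well plates to compound at five concentrations. GI50 is the concentration that inhibits growth by half. Definition used: TGI = concentration required for complete inhibition of growth.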 Where a SMILES comes first, the peptide text is derived from it.
# Legend:
# Experiment in all cases: inhibition of tumour cell growth, NCI panel, 48 h
# [1] = system: HCT-15 colon
# [2] = system: HS 578T breast
# [3] = system: K-562 leukemia
# [4] = system: MDA-MB-231 breast
# [5] = system: NCI-H23 lung
# [6] = system: OVCAR-3 ovarian
# [7] = system: SF-268 CNS
# [8] = system: SK-MEL-2 melanoma
# [9] = system: TK-10 renal
# [10] = system: HOP-92 NSCLC
SMILES,GI50 [1],TGI [1],GI50 [2],TGI [2],GI50 [3],TGI [3],GI50 [4],TGI [4],GI50 [5],TGI [5],GI50 [6],TGI [6],GI50 [7],TGI [7],GI50 [8],TGI [8],GI50 [9],TGI [9],GI50 [10],TGI [10]
CCCCNC(=O)Oc1ccc(/C(=C(/C)Cc2ccc(OC)cc2)c2ccc(OCCN3CCCC3)cc2)cc1,1.5 µM,3.13 µM,2.11 µM,4.81 µM,1.57 µM,5.13 µM,1.87 µM,3.49 µM,2.26 µM,5.67 µM,1.79 µM,3.47 µM,1.98 µM,4.4 µM,2.13 µM,4.23 µM,4.31 µM,17.8 µM,,
Cc1cc(N2CCCC2)nc(NCc2cc(Nc3ccnc4cc(Cl)ccc34)ccc2F)n1,1.06 µM,2.35 µM,1.51 µM,3.91 µM,,,,,1.3 µM,3.63 µM,1.57 µM,3.06 µM,1.36 µM,3.14 µM,1.74 µM,3.31 µM,2.14 µM,3.72 µM,1.19 µM,2.57 µM
CCC(C)C1NC(=O)C2CCCN2C(=O)CNC(=O)C(C)NC(=O)C(Cc2ccccc2)NC(=O)C(C(C)C)NC1=O (centres undefined) (cyclo(GPIVFA); configuration not given here),,> 100 µM,,,,,,,,> 100 µM,,> 100 µM,,> 100 µM,,,,> 100 µM,,> 100 µM
CCCCc1n(Cc2ccc3ccccc3c2)cc[n+]1Cc1ccc2ccccc2c1,,,,,,,1.31 µM,2.77 µM,0.793 µM,2.31 µM,,,,,,,1.37 µM,2.76 µM,,
COc1ccc2c(c1)[n+]([O-])c(-c1ccc(C)cc1)c(N)[n+]2[O-],,> 100 µM,,,,> 100 µM,,,,48.3 µM,,> 100 µM,,,,> 100 µM,,,,> 100 µM
O=[N+]([O-])c1ccccc1C=NC12CC3CC(CC(C3)C1)C2,,> 100 µM,,,,> 100 µM,,,,> 100 µM,,> 100 µM,,> 100 µM,,> 100 µM,,> 100 µM,,> 100 µM
COc1ccc(-c2cc(-c3cc(Cl)cc(Br)c3O)[nH]c(=O)n2)cc1,,,,,,41.7 µM,,,,29.4 µM,,31.5 µM,,50 µM,,,,47.3 µM,,34.7 µM
CC(=O)[CH-]C(=O)c1ccccc1.CC(=O)[CH-]C(=O)c1ccccc1.Cl.[O-]c1ccccn1.[O-]c1ccccn1.[Ti+4],> 100 µM,> 100 µM,,,> 100 µM,> 100 µM,,,,,> 100 µM,> 100 µM,> 100 µM,> 100 µM,> 100 µM,> 100 µM,,,,
CC(C)CC(Nc1c(O)ccc2ccccc12)C(=O)O (centres undefined),,> 100 µM,,95.9 µM,,> 100 µM,,> 100 µM,,> 100 µM,,62.1 µM,,83.3 µM,,42.5 µM,,> 100 µM,,
Cc1ccc(-c2cc(=O)c3cc(C)c(C)c(C(=O)O)c3o2)cc1N,,> 100 µM,,,,> 100 µM,,,,> 100 µM,,> 100 µM,,> 100 µM,,> 100 µM,,> 100 µM,,
COC(=O)N/N=C(/CCC(=O)Nc1ccc(C)c(C)c1)CC(=O)C(C)(C)C,,> 100 µM,,,,> 100 µM,,,,> 100 µM,,> 100 µM,,> 100 µM,,> 100 µM,,> 100 µM,,
